Data from patent US9169254B2, “Spiroimidazolone derivative” (Chugai Seiyaku Kabushiki Kaisha, priority 2009, dated 2015).

What follows are compounds tested against T1, human PTH1 receptor (Homo sapiens, UniProt Q03431) (assay: In vitro cAMP signal activity in HKRK-B7 cells (LLC-PK1 cells overexpressing the human PTH1 receptor)). Settings: HKRK-B7 cells; compound at 1×10^−3 M; cAMP produced as percentage of that produced by hPTH(1-34) at 100 nM.
T1 sequence (Q03431 27-593): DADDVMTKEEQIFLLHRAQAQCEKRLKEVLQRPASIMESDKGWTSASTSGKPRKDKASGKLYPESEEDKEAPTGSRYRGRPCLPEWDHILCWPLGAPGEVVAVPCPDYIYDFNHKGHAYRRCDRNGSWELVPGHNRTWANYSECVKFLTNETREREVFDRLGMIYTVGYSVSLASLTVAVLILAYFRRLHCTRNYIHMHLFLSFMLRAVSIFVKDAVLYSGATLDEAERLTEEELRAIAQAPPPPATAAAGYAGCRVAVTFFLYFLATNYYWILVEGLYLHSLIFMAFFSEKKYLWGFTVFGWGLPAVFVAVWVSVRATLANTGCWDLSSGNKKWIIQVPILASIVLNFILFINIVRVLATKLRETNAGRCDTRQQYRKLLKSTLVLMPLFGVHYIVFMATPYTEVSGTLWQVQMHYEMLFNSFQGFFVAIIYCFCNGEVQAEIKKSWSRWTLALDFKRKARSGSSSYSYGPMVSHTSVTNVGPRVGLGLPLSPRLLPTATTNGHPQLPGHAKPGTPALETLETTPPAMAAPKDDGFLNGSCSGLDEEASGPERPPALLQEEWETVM
Type: cell-based

| SMILES | cAMP production activity (%) |
| --- | --- |
| CC(=O)OC[C@H](CN(C(C)=O)c1ccc(CCS(=O)(=O)N2CCC3(CC2)N=C(c2ccc(F)c(C(F)(F)F)c2)NC3=O)c(C)c1)OC(C)=O [Compound 153, acetic acid (S)-1-acetoxymethyl-2-[acetyl-(4-{2-[2-(4-fluoro-3-trifluoromethyl-phenyl)-4-oxo-1,3,8-triaza-spiro[4.5]dec-1-ene-8-sulfonyl]-ethyl}-3-methyl-phenyl)-amino]-ethyl ester] | 59 |
| Cc1cc(NC[C@H](O)CO)ccc1CCS(=O)(=O)N1CCC2(CC1)N=C(c1ccc(C(F)(F)F)cc1)NC2=O [Compound 154, 8-{2-[4-((S)-2,3-Dihydroxy-propylamino)-2-methyl-phenyl]-ethanesulfonyl}-2-(4-trifluoromethyl-phenyl)-1,3,8-triaza-spiro[4.5]dec-1-en-4-one] | 82 |
| Cc1cc(NC[C@H](O)CO)ccc1CCS(=O)(=O)N1CCC2(CC1)N=C(c1cccc(C(F)(F)F)c1)NC2=O [Compound 155, 8-{2-[4-((S)-2,3-dihydroxy-propylamino)-2-methyl-phenyl]-ethanesulfonyl}-2-(3-trifluoromethyl-phenyl)-1,3,8-triaza-spiro[4.5]dec-1-en-4-one] | 45 |
| Cc1cc(NC[C@H](O)CO)ccc1CCS(=O)(=O)N1CCC2(CC1)N=C(c1ccc(OC(F)(F)F)cc1)NC2=O [Compound 156, 8-{2-[4-((S)-2,3-Dihydroxy-propylamino)-2-methyl-phenyl]-ethanesulfonyl}-2-(4-trifluoromethoxy-phenyl)-1,3,8-triaza-spiro[4.5]dec-1-en-4-one] | 64 |
| Cc1cc(NC[C@H](O)CO)ccc1CCS(=O)(=O)N1CCC2(CC1)N=C(c1cccc(Cl)c1)NC2=O [Compound 157, 2-(3-chloro-phenyl)-8-{2-[4-((S)-2,3-dihydroxy-propylamino)-2-methyl-phenyl]-ethanesulfonyl}-1,3,8-triaza-spiro[4.5]dec-1-en-4-one] | 70 |
| Cc1cc(NC[C@H](O)CO)ccc1CCS(=O)(=O)N1CCC2(CC1)N=C(c1ccc(Cl)cc1)NC2=O [Compound 158, 2-(4-chloro-phenyl)-8-{2-[4-((S)-2,3-dihydroxy-propylamino)-2-methyl-phenyl]-ethanesulfonyl}-1,3,8-triaza-spiro[4.5]dec-1-en-4-one] | 62 |
| Cc1cc(NCCO)ccc1CCS(=O)(=O)N1CCC2(CC1)N=C(c1cccc(OC(F)(F)F)c1)NC2=O [Compound 159, 8-{2-[4-(2-Hydroxy-ethylamino)-2-methyl-phenyl]-ethanesulfonyl}-2-(3-trifluoromethoxy-phenyl)-1,3,8-triaza-spiro[4.5]dec-1-en-4-one] | 96 |
| Cc1cc(NCCO)ccc1CCS(=O)(=O)N1CCC2(CC1)N=C(c1cccc(C(F)(F)F)c1)NC2=O [Compound 160, 8-{2-[4-(2-hydroxy-ethylamino)-2-methyl-phenyl]-ethanesulfonyl}-2-(3-trifluoromethyl-phenyl)-1,3,8-triaza-spiro[4.5]dec-1-en-4-one] | 65 |
| Cc1cc(NCCO)ccc1CCS(=O)(=O)N1CCC2(CC1)N=C(c1ccc(C(F)(F)F)cc1)NC2=O [Compound 161, 8-{2-[4-(2-hydroxy-ethylamino)-2-methyl-phenyl]-ethanesulfonyl}-2-(4-trifluoromethyl-phenyl)-1,3,8-triaza-spiro[4.5]dec-1-en-4-one] | 69 |
| Cc1cc(CNC(=O)OC(C)(C)C)ccc1CCS(=O)(=O)N1CCC2(CC1)N=C(C(C)(C)C)NC2=O [Compound 162, {4-[2-(2-tert-Butyl-4-oxo-1,3,8-triaza-spiro[4.5]dec-1-ene-8-sulfonyl)-ethyl]-3-methyl-benzyl}-carbamic acid tert-butyl ester] | 43 |
| Cc1cc(CNC(=O)OC(C)(C)C)ccc1CCS(=O)(=O)N1CCC2(CC1)N=C(C1CCC(F)(F)CC1)NC2=O [Compound 163, (4-{2-[2-(4,4-difluoro-cyclohexyl)-4-oxo-1,3,8-triaza-spiro[4.5]dec-1-ene-8-sulfonyl]-ethyl}-3-methyl-benzyl)-carbamic acid tert-butyl ester] | 41 |
| Cc1cc(CNC(=O)OC(C)(C)C)ccc1CCS(=O)(=O)N1CCC2(CC1)N=C(c1ccc(F)c(C(F)(F)F)c1)NC2=O [Compound 164, (4-{2-[2-(4-fluoro-3-trifluoromethyl-phenyl)-4-oxo-1,3,8-triaza-spiro[4.5]dec-1-ene-8-sulfonyl]-ethyl}-3-methyl-benzyl)-carbamic acid tert-butyl ester] | 45 |
| Cc1cc(CNC(=O)OC(C)(C)C)ccc1CCS(=O)(=O)N1CCC2(CC1)N=C(C1CCOCC1)NC2=O [Compound 165, (3-methyl-4-{2-[4-oxo-2-(tetrahydro-pyran-4-yl)-1,3,8-triaza-spiro[4.5]dec-1-ene-8-sulfonyl]-ethyl}-benzyl)-carbamic acid tert-butyl ester] | 37 |
| Nc1cccc(CCS(=O)(=O)N2CCC3(CC2)N=C(C2CCCCC2)NC3=O)c1 [Compound 166, 8-[2-(3-Amino-phenyl)-ethanesulfonyl]-2-cyclohexyl-1,3,8-triaza-spiro[4.5]dec-1-en-4-one] | 56 |
| CC(=O)Nc1ccc(CCS(=O)(=O)N2CCC3(CC2)N=C(C2CCCCC2)NC3=O)cc1 [Compound 167, N-{4-[2-(2-Cyclohexyl-4-oxo-1,3,8-triaza-spiro[4.5]dec-1-ene-8-sulfonyl)-ethyl]-phenyl}-acetamide] | 44 |
| Cc1cc(C(=O)N(C)C)ccc1CCS(=O)(=O)N1CCC2(CC1)N=C(c1cccc(COCC(F)(F)F)c1)NC2=O [Compound 168, 3,N,N-Trimethyl-4-(2-{4-oxo-2-[3-(2,2,2-trifluoro-ethoxymethyl)-phenyl]-1,3,8-triaza-spiro[4.5]dec-1-ene-8-sulfonyl}-ethyl)-benzamide] | 69 |
| Cc1cc(C(=O)N(C)C)ccc1CCS(=O)(=O)N1CCC2(CC1)N=C(c1cccc(COCC(F)F)c1)NC2=O [Compound 169, 4-(2-{2-[3-(2,2-difluoro-ethoxymethyl)-phenyl]-4-oxo-1,3,8-triaza-spiro[4.5]dec-1-ene-8-sulfonyl}-ethyl)-3,N,N-trimethyl-benzamide] | 71 |
| Cc1cc(C(=O)N(C)C)ccc1CCS(=O)(=O)N1CCC2(CC1)N=C(c1cccc(COCC(F)(F)C(F)F)c1)NC2=O [Compound 170, 3,N,N-trimethyl-4-(2-{4-oxo-2-[3-(2,2,3,3-tetrafluoro-propoxymethyl)-phenyl]-1,3,8-triaza-spiro[4.5]dec-1-ene-8-sulfonyl}-ethyl)-benzamide] | 77 |
| Cc1cc(C(=O)N(C)C)ccc1CCS(=O)(=O)N1CCC2(CC1)N=C(c1cccc(-c3c(C)noc3C)c1)NC2=O [Compound 171, 4-(2-{2-[3-(3,5-Dimethyl-isoxazol-4-yl)-phenyl]-4-oxo-1,3,8-triaza-spiro[4.5]dec-1-ene-8-sulfonyl}-ethyl)-3,N,N-trimethyl-benzamide] | 36 |
